According to PMC6203334 (Medicinal chemistry research : an international journal for …, 2018):

What was measured:
Assay type in all cases: cell-based
[1] = tested on: Plasmodium falciparum chloroquine sensitive (D6, Sierra Leone); assay: In vitro antimalarial assay; settings: D6, read-out: P. falciparum IC50 (D6)
[2] = tested on: Plasmodium falciparum chloroquine resistant (W2, Indo China); assay: In vitro antimalarial assay; settings: W2, read-out: P. falciparum IC50 (W2)
[3] = tested on: Leishmania donovani promastigotes; assay: In vitro antileishmanial assay, promastigotes; settings: for IC50: read-out: L. donovani promastigotes IC50; for IC90: read-out: L. donovani promastigotes IC90
[4] = tested on: Leishmania donovani axenic amastigotes; assay: In vitro antileishmanial assay, axenic amastigotes; settings: for IC50: read-out: L. donovani Axenic amastigotes IC50; for IC90: read-out: L. donovani Axenic amastigotes IC90
[5] = tested on: Blood stage forms of Trypanosoma brucei brucei; assay: In vitro antitrypanosomal assay; settings: NA: not active

SMILES | IC50 [1] [nM] | IC50 [2] [nM] | IC50 [3] [nM] | IC90 [3] [nM] | IC50 [4] [nM] | IC90 [4] [nM] | T. brucei IC9 ([5]; Table 3) [µM] | IC50 ([5]; read-out: Trypanosoma brucei IC50) [nM] | IC90 ([5]; read-out: Trypanosoma brucei IC90) [nM]
CCN(CC)CCCC(C)Nc1ccnc2cc(Cl)ccc12 (stereo not shown) [CQ, chloroquine] | 52 | 460 | – | – | – | – | – | – | –
C[C@@H]1[C@H](O)[C@@H](C)/C=C/C=C/C=C/C=C/C=C/C=C/C=C/[C@H](O[C@@H]2O[C@H](C)[C@@H](O)[C@H](N)[C@@H]2O)C[C@@H]2O[C@](O)(C[C@@H](O)C[C@@H](O)[C@H](O)CC[C@@H](O)C[C@@H](O)CC(=O)O[C@H]1C)C[C@H](O)[C@H]2C(=O)O [Amp B, Amphotericin B] | – | – | 192 | 312 | 1730 | 2000 | – | – | –
NCCCC(N)(C(=O)O)C(F)F (stereo not shown) [DFMO, difluoromethylornithine] | – | – | – | – | – | – | 59.175 ± 5.748 | 21300 ± 2010 | 59200 ± 5750
N=C(N)c1ccc(OCCCCCOc2ccc(C(=N)N)cc2)cc1 [Pent, pentamidine] | – | – | 2040 | 3670 | 15300 | 16900 | – | – | –
